Starred links: 1 amine or outer side, 2 acyl side, 3 side chain; linkers in the order of their positions; H or OH if unused. Positions of bridges follow the written chain, without caps; N, C: chain ends. Non-standard residues stand in square brackets, D forms with d. Residues, ends and D or L forms follow the SMILES beside them. Chains are numbered I, II in the order given. Actinocin(9to1) = Cc1c2oc3c(C)ccc(C(=O)[*:1])c3nc-2c(C(=O)[*:2])c(N)c1=O; NMeV = CN[C@H](C(=O)O)C(C)C; Sar = CNCC(=O)O

Series [1] relates to hEAAT2 promoter. The experiment in a line: hEAAT2 promoter luciferase assay of agents in PHFA-Im (FIG. 11). The class given is cell-based, human. The conditions noted are these: 10 μM. As to the method:
(§1) FIG. 11. Effect of various agents on hEAAT2 promoter activity in immortalized primary human fetal astrocytes (PHFA-Im). A: ceftriaxone; B: amoxicillin; C: chloramphenicol; D: thiamphenicol; E: vancomycin; F: glycine; G: glutamate; H: DMSO; I: dibutyryl cAMP. PHFA-Im is a human telomerase-immortalized clone of primary human fetal astrocytes. PHFA-Im cells were seeded at 5×10^4 cells/35-mm plate. Twenty-four h later cells were untreated (CON) or received the indicated compound at a final concentration of 10 μM. Forty-eight h later the cells were transfected with a FL pGL3/EAAT2 luciferase reporter construct (5 μg) plus a pSVβGalactosidase construct (1 μg) using the calcium phosphate precipitation method (Su et al. 2003, Proc. Natl. Acad. Sci. USA 100:1955-1960). After an additional 48 h, cell lysates were prepared and luciferase activity was determined using the Luciferase Assay System Kit (Promega, E1501) and luminescence determined using a luminometer (Turner Designs, TD20/20) (Su et al. 2003, Proc. Natl. Acad. Sci. USA 100:1955-1960). Data presented are the average of 3 independent plates±S.D. Qualitatively similar results were obtained in 2 additional experiments.
as §1, with “The effects” for “FIG. 11. Effect”, “these same” for “various”, “also were examined” for “on hEAAT2 promoter activity”, “two other cell lines to confirm the generality of the findings. […] PHFA-Im is a cell line developed from a clonal isolate of a” for “immortalized”, “astrocyte immortalized by transformation with the reverse transcriptase subunit of” for “astrocytes (PHFA-Im). A: ceftriaxone; B: amoxicillin; C: chloramphenicol; D: thiamphenicol; E: vancomycin; F: glycine; G: glutamate; H: DMSO; I: dibutyryl cAMP. PHFA-Im is a”, “telomerase.” for “telomerase-immortalized clone of primary human fetal astrocytes.”

Series [2] concerns hEAAT2 promoter. The series is described as follows: hEAAT2 promoter luciferase assay of agents in PHFA (FIG. 10). The class given is cell-based, human. The note with it: PHFA passage #3; 10 μM. As to the method:
as §1, with “10.” for “11.”, “on” for “in immortalized”, “(PHFA).” for “(PHFA-Im).”, “PHFA (passage #3)” for “PHFA-Im is a human telomerase-immortalized clone of primary human fetal astrocytes. PHFA-Im cells”, “1×10^5” for “5×10^4”
as §1, with “Identification of Agents that Modulate hEAAT2 Promoter Activity. FIGS. 10-12 show the effects” for “FIG. 11. Effect”, “PHFA (FIG. 10),” for “immortalized primary human fetal astrocytes (PHFA-Im). A: ceftriaxone; B: amoxicillin; C: chloramphenicol; D: thiamphenicol; E: vancomycin; F: glycine; G: glutamate; H: DMSO; I: dibutyryl cAMP.”, “(FIG. 11) and H4 glioma (FIG. 12) cells. In the studies shown in FIG. 10, PHFA (passage #3)” for “is a human telomerase-immortalized clone of primary human fetal astrocytes. PHFA-Im cells”, “1×10^5” for “5×10^4”

Series [3] has as its system hEAAT2 promoter. The experiment in a line: hEAAT2 promoter luciferase assay of agents in H4 glioma cells (FIG. 12). The class given is cell-based, human. The conditions noted are these: H4 malignant glioma cells; 10 μM. How it is done: as §1, with “12.” for “11.”, “H4” for “immortalized primary”, “malignant glioma cells.” for “fetal astrocytes (PHFA-Im).”, “H4” for “PHFA-Im”, “rare” for “human telomerase-immortalized”, “malignant glioma cells that support hEAAT2 promoter activity. H4” for “primary human fetal astrocytes. PHFA-Im”
H4, the third cell line examined, is a rare clone of malignant glioma cells that support hEAAT2 promoter activity. In the studies shown in FIG. 12, H4 cells were seeded at 5×10^4 cells/35-mm plate. Twenty-four h later cells were untreated (CON) or received the indicated compound at a final concentration of 10 μM. Forty-eight h later the cells were transfected with a FL pGL3/EAAT2 luciferase reporter construct (5 μg) plus a pSVβGalactosidase construct (1 μg) using the calcium phosphate precipitation method (Su et al. 2003, Proc. Natl. Acad. Sci. USA 100:1955-1960). After an additional 48 h, cell lysates were prepared and luciferase activity was determined using the Luciferase Assay System Kit (Promega, E1501) and luminescence determined using a luminometer (Turner Designs, TD20/20) (Su et al. 2003, Proc. Natl. Acad. Sci. USA 100:1955-1960). Data presented are the average of 3 independent plates±S.D. Qualitatively similar results were obtained in 2 additional experiments.

For another series, the system named is rat astrocytes. The conditions noted are these: Zelenaia et al., 2000; cited from earlier work.

Turning to `CS(=O)(=O)c1ccc([C@@H](O)[C@@H](CO)NC(=O)C(Cl)Cl)cc1` [thiamphenicol], the hEAAT2 promoter activity result with hEAAT2 promoter [1], in the series on hEAAT2 promoter [2] and in the series on hEAAT2 promoter [3] was “potent stimulators” in each case.

With `Cc1c2oc3c(C)ccc(C(=O)N[C@@H]4C(=O)N[C@H](C(C)C)C(=O)N5CCC[C@H]5C(=O)N(C)CC(=O)N(C)[C@@H](C(C)C)C(=O)O[C@@H]4C)c3nc-2c(C(=O)N[C@@H]2C(=O)N[C@H](C(C)C)C(=O)N3CCC[C@H]3C(=O)N(C)CC(=O)N(C)[C@@H](C(C)C)C(=O)O[C@@H]2C)c(N)c1=O` [actinomycin D] (I: T[dV]P[Sar][NMeV] / II: T[dV]P[Sar][NMeV]; ester I:1-I:C, II:1-II:C; linker I:N-II:N via Actinocin(9to1)), in the series on rat astrocytes, the toxicity result is listed as “toxic”.

Consider `O=C(N[C@H](CO)[C@H](O)c1ccc([N+](=O)[O-])cc1)C(Cl)Cl` [chloramphenicol], for which the hEAAT2 promoter activity result with hEAAT2 promoter [1], in the series on hEAAT2 promoter [2] and in the series with hEAAT2 promoter [3] was “potent stimulators” in each case.

For `CO/N=C(\C(=O)N[C@@H]1C(=O)N2C(C(=O)O)=C(CSc3nc(=O)c(=O)[nH]n3C)CS[C@H]12)c1csc(N)n1` [ceftriaxone], the hEAAT2 promoter activity result in the series on hEAAT2 promoter [1], in the series with hEAAT2 promoter [2] and with hEAAT2 promoter [3] was “potent stimulators” throughout.

The values are drawn from patent publication US20060127980A1, “Human excitatory amino acid transporter-2 gene promoter and uses thereof” (priority 2003, published 2006).
